Source: patent US9382295B2, “Cyclic depsipeptide compounds and their uses” (Cypralis Limited, priority 2012, dated 2016)
Converted amounts (≈) assume the structure as drawn. Read-outs that look alike come from different tables or passages of the source. Numbered stars: 1 amine (or outer) side, 2 acyl side, 3 side chain; on linkers, the order of the positions; unused ones are H or OH. Square brackets hold non-standard residues; d marks the D form. Peptide text beside a SMILES is read from it. X13 = C[C@H](CCN(Cc1ccccn1)Cc1ccccn1)[C@@H](O)[C@H](C(=O)[*:2])N(C)[*:1]; X33 = C[C@H](CCN1CCC(F)(CO)CC1)[C@@H](O)[C@H](C(=O)[*:2])N(C)[*:1]; X20 = C[C@H](CCN1CCC(F)(F)CC1)[C@@H](O)[C@H](C(=O)[*:2])N(C)[*:1]; X1 = Cc1cccc(CCC[C@@H](C)[C@@H](O)[C@H](C(=O)[*:2])N(C)[*:1])n1; X27 = C[C@H](CCN(C)c1ccccn1)[C@@H](O)[C@H](C(=O)[*:2])N(C)[*:1]; X6 = C[C@H](CCN1CCOC[C@H]1C)[C@@H](O)[C@H](C(=O)[*:2])N(C)[*:1]; X8 = C[C@H](CCN1CCC[C@H]1CO)[C@@H](O)[C@H](C(=O)[*:2])N(C)[*:1]; X11 = C[C@H](CCN(C)CCC#N)[C@@H](O)[C@H](C(=O)[*:2])N(C)[*:1]; d(aThr) = C[C@@H](O)[C@@H](N)C(=O)O; NMeL = CN[C@@H](CC(C)C)C(=O)O; dNMeL = CN[C@H](CC(C)C)C(=O)O; dNMeV = CN[C@@H](C(=O)O)C(C)C; Hiv = CC(C)[C@H](O)C(=O)O; dAbu = CC[C@@H](N)C(=O)O; Sar = CNCC(=O)O

Legend:
[1] = molecular target: T1, cyclophilin A (Cyp A) (Homo sapiens, UniProt P62937); assay: Protease-free PPIase assay, cyclophilin A; assay type: biochemical
T1 construct: purchased Sigma C3805
T1 sequence (P62937 whole entry): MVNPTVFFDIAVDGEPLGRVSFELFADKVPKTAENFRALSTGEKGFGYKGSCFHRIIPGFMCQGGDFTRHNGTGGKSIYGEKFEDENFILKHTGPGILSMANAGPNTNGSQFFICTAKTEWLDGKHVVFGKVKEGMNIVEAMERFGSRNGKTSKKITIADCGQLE
Method: (§1) The protease-free PPIase assay measures the rate of cis to trans conversion of a peptide substrate catalyzed by the enzymes cyclophilin A and cyclophilin D. Addition of a cyclophilin inhibitor (e.g., a test compound) slows the catalyzed rate and a Ki value is obtained. […] 35 mM HEPES pH 7.8, filtered through a 0.2 μm filter. 50 μM DTT was added prior to use each day and then the buffer was stored on ice. Human recombinant cyclophilin A (Cyp A) (Sigma C3805) enzyme was diluted to 1 μM with enzyme dilution buffer (20 mM HEPES pH 7.8, 40% glycerol, 50 μM DTT and 1 μM BSA) and stored at -20° C. Succinimide-[…]) (from Bachem AG, L-1400), 20 mg/ml prepared in 0.5 M LiCl in trifluoroethanol. All readings were taken with an Agilent 8453 Spectrophotometer which consists of a cuvette holder, stirrer and chiller to maintain a stirred cuvette temperature of 10.0±0.1° C. The temperature is monitored by the use of temperature probe. […] The inhibitor was diluted in 100% DMSO, and then added to the assay to a maximum final concentration of 0.5% DMSO in the assay. A blank spectrum was obtained, then 3 μL of enzyme was added (2 nM final concentration) and then 3 μL substrate (60 μM final concentration) added. The absorbance was measured at 330 nm for 300 s or 500 s for blank runs (NOTE: the substrate must be added in one quick injection and the measurements started immediately to minimize mixing errors). A first order rate equation was fitted to the absorbance data, for each concentration of inhibitor, to obtain the rate constant (the first 10 to 15 seconds were excluded as mixing causes errors in this portion of curve). The catalytic rate was calculated from the enzymatic rate constant minus the background rate constant. An exponential curve was generated using the catalytic rate constants versus the inhibitor concentration to obtain the Ki value for the inhibitor. The Ki value is indicative of the binding affinity between the test compound and cyclophilin A or cyclophilin D.

[2] = molecular target: cyclophilin D (Cyp D) (Homo sapiens, UniProt P30405); assay: Protease-free PPIase assay, cyclophilin D; assay type: biochemical
cyclophilin D (Cyp D), sequence (P30405 30-207): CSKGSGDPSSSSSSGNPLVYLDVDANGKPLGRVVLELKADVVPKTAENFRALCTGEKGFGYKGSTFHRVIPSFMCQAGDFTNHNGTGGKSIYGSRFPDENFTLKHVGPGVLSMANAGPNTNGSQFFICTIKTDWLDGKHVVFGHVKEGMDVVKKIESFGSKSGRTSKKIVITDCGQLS
Method: as §1, with “ice.” for “ice. Human recombinant cyclophilin A (Cyp A) (Sigma C3805) enzyme was diluted to 1 μM with enzyme dilution buffer (20 mM HEPES pH 7.8, 40% glycerol, 50 μM DTT and 1 μM BSA) and stored at -20° C.”

[3] = Water solubility assay (pH 7.8 buffer); assay type: physicochemical
Method: ***Water Solubility Assay (Measured in pH 7.8 Buffer)
The onset of precipitation, if it occurred, was detected by an increase in absorbance at 650 nm.
Assay Buffer: 35 mM HEPES pH 7.8
Stock solutions of Control and Test Compounds: 10 mM in 100% DMSO
10 mM stock solutions of control and test compounds were prepared in 100% DMSO. A series of dilutions were prepared from the stock in DMSO so that the final concentrations in the assay were 0, 3.33, 10, 25, 50, 75 and 100 μM and DMSO was limited to 1%.
Assay buffer (247.5 μl) was placed into flat bottomed transparent 96-well plate. For blank samples DMSO (2.5 μl) was added. For test and control samples 2.5 μl of the appropriate DMSO dilution stocks were added to the appropriate well. All test and control compounds were performed in triplicate.
The plates were sealed with adhesive plate seal and shaken at 250 rpm at 25° C. for 18 h on a plate shaker.
After incubation the plate seals were taken off and any bubbles observed in wells removed. The plates were read on a SpectraMaxM5 with a 5 s pre-shake at 650 nm.
Data files were transferred to the appropriate worksheet and the solubility range of the compounds was calculated from the data.
The values shown in the tables indicate the concentration in μM (micromolar) at which the compound remains in solution.

[4] = protease-free PPIase assay, class symbols, read-out: CypA Ki
[5] = protease-free PPIase assay, class symbols, read-out: CypD Ki
[6] = 35 mM HEPES buffer, 35 mM HEPES pH 7.8, 1% DMSO, 25° C., 18 h, concentration at which compound remains in solution, read-out: Solubility

Row | Compound | Ki [1] | Ki [2] | solubility at 18 h ([3]; pH 7.8) | Ki [1, 4] | Ki [2, 5] | solubility at 18 h [3, 6]
1 | CC[C@H]1NC(=O)[C@@H]([C@H](O)[C@H](C)CCCc2cccc(C)n2)N(C)C(=O)[C@@H](C(C)C)N(C)C(=O)[C@@H](CC(C)C)NC(=O)[C@@H](CC(C)C)N(C)C(=O)[C@H](C(C)C)OC(=O)[C@@H](C)NC(=O)[C@@H](CC(C)C)N(C)C(=O)[C@@H](CC(C)C)NC(=O)[C@H](CC(C)C)N(C)C(=O)CN(C)C1=O [Example 21, cyclo-[(3R,4R,5S)-4-(hydroxy)-3-methyl-5-(methylamino)-1-(6-methyl-pyridin-2-yl)-heptanoic acid-Abu-Sar-MeLeu-Leu-MeLeu-Ala-D-Hiv-MeLeu-Leu-MeVal]] (cyclo([Hiv][dNMeL][dL][dNMeV][X1][dAbu][Sar][NMeL][dL][dNMeL][dA])) | 1 to 25 nM | 1 to 25 nM | 10 to 25 µM (≈ 13.1 to 32.8 µg/mL) |  |  | 
2 | CC(C)C[C@@H]1C(=O)N[C@H](CC(C)C)C(=O)N(C)[C@H](C(C)C)C(=O)N(C)[C@H]([C@H](O)[C@H](C)CCN2CCC(F)(F)CC2)C(=O)N[C@H]([C@@H](C)O)C(=O)N(C)CC(=O)N(C)[C@@H](CC(C)C)C(=O)N[C@H](CC(C)C)C(=O)N(C)[C@H](CC(C)C)C(=O)N[C@H](C)C(=O)O[C@@H](C(C)C)C(=O)N1C [Example 24, cyclo-[(3R,4R,5S)-4-(hydroxy)-3-methyl-5-(methylamino)-1-N-(4,4-difluoro-piperidine)-hexanoic acid-Thr-Sar-MeLeu-Leu-MeLeu-Ala-D-Hiv-MeLeu-Leu-MeVal]] (cyclo([Hiv][dNMeL][dL][dNMeV][X20][d(aThr)][Sar][NMeL][dL][dNMeL][dA])) | 1 to 25 nM | 1 to 25 nM | 25 to 50 µM (≈ 33.5 to 67 µg/mL) |  |  | 
3 | CC(C)C[C@@H]1C(=O)N[C@H](CC(C)C)C(=O)N(C)[C@H](C(C)C)C(=O)N(C)[C@H]([C@H](O)[C@H](C)CCN2CCC(F)(CO)CC2)C(=O)N[C@H]([C@@H](C)O)C(=O)N(C)CC(=O)N(C)[C@@H](CC(C)C)C(=O)N[C@H](CC(C)C)C(=O)N(C)[C@H](CC(C)C)C(=O)N[C@H](C)C(=O)O[C@@H](C(C)C)C(=O)N1C [Example 25, cyclo-[(3R,4R,5S)-4-(hydroxy)-3-methyl-5-(methylamino)-1-N-((4-fluoro-piperidin-4-yl)-methanol)-hexanoic acid-Thr-Sar-MeLeu-Leu-MeLeu-Ala-D-Hiv-MeLeu-Leu-MeVal]] (cyclo([Hiv][dNMeL][dL][dNMeV][X33][d(aThr)][Sar][NMeL][dL][dNMeL][dA])) |  |  |  | 100 to 300 nM | 100 to 300 nM | > 100 µM
4 | CC(C)C[C@@H]1C(=O)N[C@H](CC(C)C)C(=O)N(C)[C@H](C(C)C)C(=O)N(C)[C@H]([C@H](O)[C@H](C)CCN2CCC[C@H]2CO)C(=O)N[C@H]([C@@H](C)O)C(=O)N(C)CC(=O)N(C)[C@@H](CC(C)C)C(=O)N[C@H](CC(C)C)C(=O)N(C)[C@H](CC(C)C)C(=O)N[C@H](C)C(=O)O[C@@H](C(C)C)C(=O)N1C [Example 26, cyclo-[(3R,4R,5S)-4-(hydroxy)-3-methyl-5-(methylamino)-1-N—((S)-1-Pyrrolidin-2-yl-methanol)-hexanoic acid-Thr-Sar-MeLeu-Leu-MeLeu-Ala-D-Hiv-MeLeu-Leu-MeVal]] (cyclo([Hiv][dNMeL][dL][dNMeV][X8][d(aThr)][Sar][NMeL][dL][dNMeL][dA])) | 100 to 300 nM | 25 to 100 nM | > 100 µM |  |  | 
5 | CC(C)C[C@@H]1C(=O)N[C@H](CC(C)C)C(=O)N(C)[C@H](C(C)C)C(=O)N(C)[C@H]([C@H](O)[C@H](C)CCN2CCOC[C@H]2C)C(=O)N[C@H]([C@@H](C)O)C(=O)N(C)CC(=O)N(C)[C@@H](CC(C)C)C(=O)N[C@H](CC(C)C)C(=O)N(C)[C@H](CC(C)C)C(=O)N[C@H](C)C(=O)O[C@@H](C(C)C)C(=O)N1C [Example 29, cyclo-[(3R,4R,5S)-4-(hydroxy)-3-methyl-5-(methylamino)-1-N—((R)-3-Methyl-morpholine)-hexanoic acid-Thr-Sar-MeLeu-Leu-MeLeu-Ala-D-Hiv-MeLeu-Leu-MeVal]] (cyclo([Hiv][dNMeL][dL][dNMeV][X6][d(aThr)][Sar][NMeL][dL][dNMeL][dA])) | 25 to 100 nM | 25 to 100 nM | > 100 µM |  |  | 

Further lines, results first:

Row | Ki [1] | Ki [2] | solubility at 18 h ([3]; pH 7.8) | Ki [1, 4] | Ki [2, 5] | solubility at 18 h [3, 6] | Compound
6 | 25 to 100 nM | 1 to 25 nM | > 100 µM |  |  |  | CC(C)C[C@@H]1C(=O)N[C@H](CC(C)C)C(=O)N(C)[C@H](C(C)C)C(=O)N(C)[C@H]([C@H](O)[C@H](C)CCN(C)CCC#N)C(=O)N[C@H]([C@@H](C)O)C(=O)N(C)CC(=O)N(C)[C@@H](CC(C)C)C(=O)N[C@H](CC(C)C)C(=O)N(C)[C@H](CC(C)C)C(=O)N[C@H](C)C(=O)O[C@@H](C(C)C)C(=O)N1C [Example 27, cyclo-[(3R,4R,5S)-4-(hydroxy)-3-methyl-5-(methylamino)-1-N-(3-methylamino-propionitrile)-hexanoic acid-Thr-Sar-MeLeu-Leu-MeLeu-Ala-D-Hiv-MeLeu-Leu-MeVal]] (cyclo([Hiv][dNMeL][dL][dNMeV][X11][d(aThr)][Sar][NMeL][dL][dNMeL][dA]))
7 | 1 to 25 nM | 1 to 25 nM | 25 to 50 µM (≈ 33.2 to 66.4 µg/mL) |  |  |  | CC(C)C[C@@H]1C(=O)N[C@H](CC(C)C)C(=O)N(C)[C@H](C(C)C)C(=O)N(C)[C@H]([C@H](O)[C@H](C)CCN(C)c2ccccn2)C(=O)N[C@H]([C@@H](C)O)C(=O)N(C)CC(=O)N(C)[C@@H](CC(C)C)C(=O)N[C@H](CC(C)C)C(=O)N(C)[C@H](CC(C)C)C(=O)N[C@H](C)C(=O)O[C@@H](C(C)C)C(=O)N1C [Example 28, cyclo-[(3R,4R,5S)-4-(hydroxy)-3-methyl-5-(methylamino)-1-N-(methyl-pyridin-2-yl-amine)-hexanoic acid-Thr-Sar-MeLeu-Leu-MeLeu-Ala-D-Hiv-MeLeu-Leu-MeVal]] (cyclo([Hiv][dNMeL][dL][dNMeV][X27][d(aThr)][Sar][NMeL][dL][dNMeL][dA]))
8 |  |  |  | 25 to 100 nM | 1 to 25 nM | 10 to 25 µM (≈ 14.2 to 35.5 µg/mL) | CC(C)C[C@@H]1C(=O)N[C@H](CC(C)C)C(=O)N(C)[C@H](C(C)C)C(=O)N(C)[C@H]([C@H](O)[C@H](C)CCN(Cc2ccccn2)Cc2ccccn2)C(=O)N[C@H]([C@@H](C)O)C(=O)N(C)CC(=O)N(C)[C@@H](CC(C)C)C(=O)N[C@H](CC(C)C)C(=O)N(C)[C@H](CC(C)C)C(=O)N[C@H](C)C(=O)O[C@@H](C(C)C)C(=O)N1C [Example 30, cyclo-[(3R,4R,5S)-4-(hydroxy)-3-methyl-5-(methylamino)-1-N-(bis-pyridin-2-ylmethyl-amine)-hexanoic acid-Thr-Sar-MeLeu-Leu-MeLeu-Ala-D-Hiv-MeLeu-Leu-MeVal]] (cyclo([Hiv][dNMeL][dL][dNMeV][X13][d(aThr)][Sar][NMeL][dL][dNMeL][dA]))
